# Laboratory results published in PMC5403950, “Mechanism Underlying the Reversal of Drug Resistance in P-Glycoprotein-Expressing Leukemia Cells by Pinoresinol and the Study of a Derivative” (Frontiers in Pharmacology, 2017).
# pIC50: −log10 of the molar value.
# Columns and labels:
# P-gp [1] = biological target: T1, P-gp (Homo sapiens, UniProt P08183); experiment: in vitro; details: Lucena 1 cells, probe doxorubicin (DOX) 5 μM
# P-gp [2] = biological target: T1, P-gp; details: Lucena 1; 1 h pre-incubation, 5 μM DOX 1 h
# [3] = Cytotoxicity on peripheral blood mononuclear cells (MTT); assay type: cell-based, human; details: human, peripheral blood mononuclear cells (PBMC), PHA 10 μg mL−1, confidence limits in brackets
# Experimental: (§1) The cytotoxicity of 14 and 16 on peripheral blood mononuclear cells (PBMC) was evaluated by MTT assay (Joray et al., [2015]). PBMC were collected from fresh heparinized blood and separated by density gradient centrifugation (Ficoll®) as described by Rennó et al. ([2008]). As the current study required samples from healthy human volunteer donors, ethical approval was provided by the Catholic University of Córdoba Research Ethics Board. Signed informed consents were obtained from donors. […] Absorbance (Abs) and percentage of cytotoxicity were determined as described above and the IC50 values were calculated. The experiment was carried out in two separate stages.
# [4] = tested on: peripheral blood mononuclear cells (PBMC); experiment: as above; assay type: cell-based, human; details: PHA 10 μg mL−1, 48 h, confidence limits in brackets
# Experimental: as §1
# Lucena 1 cells = experiment: Multidrug resistance reversal assay (MTT) with DOX; assay type: cell-based, human
# Experimental: (§2) Briefly, 5 × 10^4 Lucena 1 cells per well were seeded in 96-well plates containing RPMI-1640 medium in the presence of DOX alone or in combination with the tested compounds dissolved in ethanol or acetonitrile as appropriate. DOX was added to reach final concentrations of 0.05–431 μM. The compounds were assayed at the highest non-toxic concentration observed in both cell lines (cytotoxicity ≤ 20%, Cytotoxicity (%) = [1-(Optical density treatment-Optical density DMSO)/(Optical density control-Optical density DMSO)] x 100, determined by MTT proliferation assay (Joray et al., [2015]); maximum concentration tested 40 μg mL^−1). Following the primary screening, compounds 14 and 16 (dissolved in ethanol) were tested at serial dilutions. […] Subsequently, the supernatants were removed and replaced with 100 μL DMSO to solubilize the resulting purple formazan crystals produced from metabolically viable cells. Absorbance was measured with an iMark micro-plate reader (Bio-Rad, USA) at 595 nm.
# (§3) The same reversal assay was performed in K562 cells, in order to discard a decrease in the IC50 of DOX due to effects other than P-gp inhibition. The reversal fold (RF) values for the tested compounds, which indicate their capacity to reduce resistance to DOX, were calculated by dividing the IC50 of DOX alone by the IC50 of DOX in the presence of the tested compounds (Xu et al., [2014]).
# K562 cells [5] = experiment: Doxorubicin intracellular accumulation assay (flow cytometry), K562; assay type: cell-based, human; details: up to the maximum concentration evaluated
# Text: […]. […] Viability controls were included in all the experiments.
# K562 cells [6] = experiment: Multidrug resistance reversal assay (MTT) with DOX, sensitive parental line; assay type: cell-based, human; details: compound at 14 μM
# Experimental: as §2, §3
# T1 sequence (P08183 whole entry): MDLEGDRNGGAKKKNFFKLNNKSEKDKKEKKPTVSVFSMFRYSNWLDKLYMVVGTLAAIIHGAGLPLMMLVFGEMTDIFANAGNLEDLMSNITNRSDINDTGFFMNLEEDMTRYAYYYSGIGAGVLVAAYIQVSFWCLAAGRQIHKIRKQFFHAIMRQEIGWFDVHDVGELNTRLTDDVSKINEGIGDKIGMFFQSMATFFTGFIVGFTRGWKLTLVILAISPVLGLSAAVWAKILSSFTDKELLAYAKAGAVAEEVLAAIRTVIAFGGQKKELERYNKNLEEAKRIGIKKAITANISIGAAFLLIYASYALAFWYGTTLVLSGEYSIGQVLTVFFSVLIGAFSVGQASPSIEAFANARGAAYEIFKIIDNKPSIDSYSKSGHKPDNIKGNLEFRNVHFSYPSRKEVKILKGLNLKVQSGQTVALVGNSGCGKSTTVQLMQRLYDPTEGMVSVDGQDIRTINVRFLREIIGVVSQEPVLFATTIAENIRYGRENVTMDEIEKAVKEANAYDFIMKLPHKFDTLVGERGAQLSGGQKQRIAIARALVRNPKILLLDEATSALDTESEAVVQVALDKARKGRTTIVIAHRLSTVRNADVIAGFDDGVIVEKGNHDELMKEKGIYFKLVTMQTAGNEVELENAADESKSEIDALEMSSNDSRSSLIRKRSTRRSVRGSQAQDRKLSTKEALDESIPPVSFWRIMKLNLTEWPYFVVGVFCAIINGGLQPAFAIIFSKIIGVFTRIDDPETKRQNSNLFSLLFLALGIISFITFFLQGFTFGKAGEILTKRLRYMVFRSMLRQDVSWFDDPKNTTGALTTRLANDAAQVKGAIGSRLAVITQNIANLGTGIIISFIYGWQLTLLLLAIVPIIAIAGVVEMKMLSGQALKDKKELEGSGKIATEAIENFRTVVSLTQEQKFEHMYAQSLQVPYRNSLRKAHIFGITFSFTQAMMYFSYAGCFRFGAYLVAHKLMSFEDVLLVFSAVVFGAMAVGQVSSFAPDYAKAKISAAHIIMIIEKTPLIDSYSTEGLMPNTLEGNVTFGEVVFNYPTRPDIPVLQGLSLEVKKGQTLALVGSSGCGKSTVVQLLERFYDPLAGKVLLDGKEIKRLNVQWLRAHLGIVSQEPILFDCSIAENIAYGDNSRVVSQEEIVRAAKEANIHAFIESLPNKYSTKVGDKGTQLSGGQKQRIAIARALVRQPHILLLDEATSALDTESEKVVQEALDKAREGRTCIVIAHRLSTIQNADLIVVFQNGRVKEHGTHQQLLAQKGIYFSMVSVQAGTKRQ
smiles,measurement,setting,value
"COc1cc([C@H]2OC[C@]3(OC(C)=O)[C@@H](c4ccc(O)c(OC)c4)OC[C@H]23)ccc1O [Compound 16, 1-acetoxy-(+)-pinoresinol]",activity at 0.87 µM,P-gp [1],62%
same,activity at 14 µM,P-gp [1],141%
same,Minimum effective concentration (MEC) in the DOX accumulation assay,P-gp [2],0.87 µM
same,IC50 at 48 h,[3],103 µM
same,pIC50,[4],3.99
same,Minimum effective concentration (MEC) in the reversal assay (potentiation of DOX toxicity from),"Lucena 1 cells; Lucena 1, DOX",0.11 µM
same,RF Lucena 1,"Lucena 1 cells; compound at 0.11 μM, DOX",1.4
same,RF Lucena 1,"Lucena 1 cells; compound at 14 μM, DOX",22.7
same,Effectiveness of 16 relative to 14 according to the MECs,Lucena 1 cells; reversal and accumulation assays,64 times
same,DOX accumulation in K562,K562 cells [5],no increase in DOX accumulation
same,Effect on DOX activity in K562,K562 cells [6],no potentiation
same,RF K562,K562 cells [6]; DOX,1.05 ± 0.14
